Our source for the Activity and activity values is ChEMBL document CHEMBL2073980, “Molecular cloning and characterization of the murine bile salt export pump” (Gene, 2000).

Common to all, as to format: functional, cell membranes, Membrane vesicle
Holding throughout (parameters): scale not given: the % may be the effect or the level left

The target in one series is T1, Bile salt export pump (Mus musculus, UniProt Q9QY30).
T1 sequence (Q9QY30 whole entry): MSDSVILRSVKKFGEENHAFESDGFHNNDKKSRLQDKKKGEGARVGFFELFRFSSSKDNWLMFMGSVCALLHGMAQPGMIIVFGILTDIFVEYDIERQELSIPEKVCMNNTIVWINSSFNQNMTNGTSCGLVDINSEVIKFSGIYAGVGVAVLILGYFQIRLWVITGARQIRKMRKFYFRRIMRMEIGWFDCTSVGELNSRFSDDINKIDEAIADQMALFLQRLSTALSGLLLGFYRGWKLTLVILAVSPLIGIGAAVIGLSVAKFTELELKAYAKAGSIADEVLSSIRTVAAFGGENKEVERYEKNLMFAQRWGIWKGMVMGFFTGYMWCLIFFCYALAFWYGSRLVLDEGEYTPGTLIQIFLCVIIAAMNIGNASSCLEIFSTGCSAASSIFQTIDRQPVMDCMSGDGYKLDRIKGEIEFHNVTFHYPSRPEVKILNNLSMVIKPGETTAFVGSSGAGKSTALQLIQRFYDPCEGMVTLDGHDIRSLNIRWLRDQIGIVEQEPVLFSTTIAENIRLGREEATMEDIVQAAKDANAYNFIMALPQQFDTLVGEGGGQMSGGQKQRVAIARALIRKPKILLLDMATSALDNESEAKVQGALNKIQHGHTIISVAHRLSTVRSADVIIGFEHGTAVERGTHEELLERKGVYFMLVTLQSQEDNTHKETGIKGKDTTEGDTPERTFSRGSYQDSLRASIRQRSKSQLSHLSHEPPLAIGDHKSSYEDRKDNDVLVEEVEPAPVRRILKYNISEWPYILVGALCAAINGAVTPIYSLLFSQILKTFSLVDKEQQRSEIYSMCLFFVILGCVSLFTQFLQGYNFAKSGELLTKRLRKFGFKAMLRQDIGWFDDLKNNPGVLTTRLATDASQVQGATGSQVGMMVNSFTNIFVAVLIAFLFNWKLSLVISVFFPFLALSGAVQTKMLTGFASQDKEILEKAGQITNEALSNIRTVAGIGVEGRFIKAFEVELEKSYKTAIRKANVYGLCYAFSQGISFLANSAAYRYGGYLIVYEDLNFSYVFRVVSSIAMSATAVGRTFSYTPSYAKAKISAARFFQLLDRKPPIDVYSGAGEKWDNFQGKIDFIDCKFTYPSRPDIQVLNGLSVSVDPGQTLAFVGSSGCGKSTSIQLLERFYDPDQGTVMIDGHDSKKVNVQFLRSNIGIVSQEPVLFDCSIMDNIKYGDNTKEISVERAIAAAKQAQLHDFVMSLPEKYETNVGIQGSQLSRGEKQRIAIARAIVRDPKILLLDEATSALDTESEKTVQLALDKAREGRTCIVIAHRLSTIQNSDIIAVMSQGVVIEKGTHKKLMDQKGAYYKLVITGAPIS
The series is described as follows: TP_TRANSPORTER: inhibition of Taurocholate uptake (Taurochorate: 5 uM, UDCA: 50 uM) in membrane vesicles isolated from Bsep-expressing Balb-3T3 cells. To be noted: balb/3t3, 50 µM.

The target of series [1] is T2, Bsep (bile salt export pump) (Mus musculus, UniProt Q9QY30).
T2 sequence (Q9QY30 whole entry): T1 sequence (Q9QY30 whole entry)
Description: TP_TRANSPORTER: inhibition of Taurocholate uptake (Taurochorate: 5 uM, TCDC: 50 uM) in membrane vesicles isolated from Bsep-expressing Balb-3T3 cells. To be noted: probe taurocholate, read-out: Activity.

Series [2] concerns the target T2, Bsep (bile salt export pump). The series is described as follows: TP_TRANSPORTER: inhibition of Taurocholate uptake (Taurochorate: 5 uM, CDCA: 50 uM) in membrane vesicles isolated from Bsep-expressing Balb-3T3 cells. The settings on record: probe taurocholate, read-out: Activity.
Series [3] has the same target. Description: TP_TRANSPORTER: inhibition of Taurocholate uptake (Taurochorate: 5 uM, TDCA: 50 uM) in membrane vesicles isolated from Bsep-expressing Balb-3T3 cells. The settings on record: probe taurocholate, read-out: Activity.

As for `C[C@H](CCC(=O)O)[C@H]1CC[C@H]2[C@@H]3[C@@H](O)C[C@@H]4C[C@H](O)CC[C@]4(C)[C@H]3CC[C@]12C` [URSODIOL], at Bile salt export pump, the Activity was 51%.
`C[C@H](CCC(=O)NCCS(=O)(=O)O)[C@H]1CC[C@H]2[C@@H]3[C@H](O)C[C@@H]4C[C@H](O)CC[C@]4(C)[C@H]3CC[C@]12C` [TAUROCHENODEOXYCHOLATE]: the activity at 50 µM in series [1] turned out to be 25%.
In the case of `C[C@H](CCC(=O)O)[C@H]1CC[C@H]2[C@@H]3[C@H](O)C[C@@H]4C[C@H](O)CC[C@]4(C)[C@H]3CC[C@]12C` [CHENODIOL], the activity at 50 µM in series [2] stood at 11%.
On to `C[C@H](CCC(=O)NCCS(=O)(=O)O)[C@H]1CC[C@H]2[C@@H]3CC[C@@H]4C[C@H](O)CC[C@]4(C)[C@H]3C[C@H](O)[C@]12C` [TAURODEOXYCHOLIC ACID], for which the activity at 50 µM in series [3] was found to be 5%.
